Data reported in patent publication US20230149374A1, “METHODS AND COMPOSITIONS FOR TREATING ATHEROSCLEROSIS” (Sanford Burnham Prebys Medical Discovery Institute, priority 2021, published 2023).
“Also recorded” adds a separate entry of the source.

What was measured:
Format in all cases: in vivo, mouse
ApoE-deficient mice [1] = assay: Plaque histology: osteosense staining of calcifications, oil red O staining; conditions: ApoE-deficient mice on HFD, 30 mg/kg/day from 10 to 25 weeks
Description: (§1) Four cohorts of mice were used in these studies (FIGS. 8A and 9A). Cohorts 1 and 2 were devoted to the in vivo and ex vivo characterization of TNAP-associated plaque calcification. 6-week-old ApoE-deficient male mice were received at the animal facility and placed in conventional cages with 5 mice per cage. Mice were maintained on a 12-hrs light-dark cycle (7:00 am-7:00 pm) and were supplied with food and water ad libitum. From 10 weeks of age, they were fed ad libitum with a high fat diet (HFD, D12108C, Research Diets, New Brunswick, USA) containing 40% fat (kcal) and 1.25% cholesterol (weight). In cohort 1, 8 mice were sacrificed every 2 weeks between weeks 17 to 31, for histological and molecular analyses. Total body weight was measured weekly after starting the HFD. The sacrifice was done after anesthesia with isoflurane and intracardiac blood puncture by CO2 inhalation. Tissues were harvested as described below. The abdominal aorta was used for quantitative polymerase chain reaction (PCR) analyses. Mice from cohort 2 were used to analyze aorta calcification with ^18F—NaF μPET and μCT and to compare the in vivo data with the ex vivo results obtained in cohort 1. Animals were transferred from the animal facility to the Cermep imaging platform. Cohorts 3 and 4 were used to determine in vivo and ex vivo the impact of TNAP inhibition on the vasculature, liver, bones, and kidneys. According to the results obtained in cohorts 1 and 2, TNAP inhibitor SBI-425 (30 mg/kg/day, formulated as a food admixture in the HFD) was administered in a preventive manner from 10 weeks of age. Treatment was stopped at 25 weeks or 31 weeks of age. Plaque calcification was analyzed at 25 weeks, and possible side effects of TNAP inhibition were explored in mice aged 31 weeks. Mice in cohort 3 (2 groups of 13 mice) were used for ex vivo analysis, and mice in cohort 4 (2 groups of 12 mice) for in vivo imaging and ex vivo analyses.
After euthanasia, the heart and vasculature were perfused with sterile NaCl 0.9%. The aortic root and the aortic arch, with the major arteries that stem from them (brachiocephalic, left common carotid and left subclavian), were dissected and frozen in optimal cutting temperature medium (OCT, Thermo Scientific) and stored at −80° C. before serial cryo-sectioning. The aortic root, aortic arch and carotid were dissected under a microscope, frozen in optimal cutting medium (OCT, Thermo Scientific) and stored at −80° C. before serial cryo-sectioning. […] Calcification was imaged by near infrared fluorescence (NIRF) with the calcium tracer osteosense (OS) (PerkinElmer, ex/em 650/680 nm). […] Quantification was performed by computer image analysis using Image J software (NIH, Bethesda, Md.) by averaging of measurements from 2 sections of 15 μm apart using ImageJ software. […]

ApoE-deficient mice [2] = assay: Quantitative PCR of transcript levels in the liver; conditions: 30 mg/kg/day, 25 weeks, vs control
ApoE-deficient mice [3] = assay: NMR metabolomics of liver and kidney extracts; conditions: 30 mg/kg/day, vs control
Description: as §1, with “According to the results obtained in cohorts 1 and 2, TNAP inhibitor SBI-425 (30 mg/kg/day, formulated as a food admixture in the HFD) was administered in a preventive manner from 10 weeks of age. Treatment was stopped at 25 weeks or 31 weeks of age.” left out, “Mice in cohort 3 (2 groups of 13 mice) were used for ex vivo analysis, and mice in cohort 4 (2 groups of 12 mice) for in vivo imaging and ex vivo analyses.” left out
Liver and kidney extraction and NMR measurement: The frozen tissues were weighed and then extracted using the methanol-chloroform-water system [2:2:1.425 (v/v/v)]. […] Deuterated phosphate buffer at pH=7.4 (200 mM) was added to the dried aqueous extract with sodium 2,2,3,3-tetradeutero-3-trimethylsilylpropionate (TSP) (Sigma-Aldrich) as internal chemical shift and quantification reference. ^1H NMR spectra were recorded at 298 K on a Bruker Avance spectrometer 500 equipped with a 5-mm TCI cryoprobe. […]

For COc1ccc(Cl)cc1S(=O)(=O)Nc1cncc(C(N)=O)c1 [SBI-425], the “mice that formed calcifications, by histology” value (ApoE-deficient mice [1]; OS staining, control 13 out of 13) was 9 out of 13, the “number of calcifications per mice” value (ApoE-deficient mice [1]; OS staining, vs control) was “lower” and the “plaque lipids (lipid surface)” value (ApoE-deficient mice [1]; oil red O, vs control) was “less lipids”. The “plaque size (plaque surface)” value (ApoE-deficient mice [1]; oil red O, vs control, 30 mg/kg/day) was “smaller; also recorded: reduced”, the “Abcg8 transcript level, liver” value (ApoE-deficient mice [2]) was “did not change” and the “Cyp7a1 transcript level, liver” value (ApoE-deficient mice [2]) was “did not change”. For the same compound, the “Cyp7b1 transcript level, liver” value (ApoE-deficient mice [2]) was “did not change”, the “Fas transcript level (fatty acid synthesis), liver” value (ApoE-deficient mice [2]) was “nor were the levels of transcripts associated with fatty acid synthesis (Srebp1c, Fas) (FIGS. 6B-6G) changed” and the “Hmgcr transcript level, liver” value (ApoE-deficient mice [2]) was “did not change”. For the same compound, the “Hp transcript level (liver inflammation)” value (ApoE-deficient mice [2]) was “unchanged”, the “Il1b transcript level (liver inflammation)” value (ApoE-deficient mice [2]) was “unchanged” and the “Ly6g transcript level (liver inflammation)” value (ApoE-deficient mice [2]) was “unchanged”. For the same compound, the “Scarb1 transcript level, liver” value (ApoE-deficient mice [2]) was “did not change”, the “Srebp1c transcript level (fatty acid synthesis), liver” value (ApoE-deficient mice [2]) was “nor were the levels of transcripts associated with fatty acid synthesis (Srebp1c, Fas) (FIGS. 6B-6G) changed” and the “Tnfa transcript level (liver inflammation)” value (ApoE-deficient mice [2]) was “unchanged”. The kidney phosphocholine levels (ApoE-deficient mice [3]; 25 weeks) was “increased”, the liver phosphocholine levels (ApoE-deficient mice [3]; 25 weeks) was “decreased; also recorded: variations close to significance” and the “liver or kidney metabolism (metabolomics, PLS-DA)” value (ApoE-deficient mice [3]) was “did not evidence a significant impact; also recorded: did not significantly change”.
